Patent US10711033B2, “Branched chain-containing aromatic compound” (AJINOMOTO CO., INC., priority 2010, dated 2020)

Assay: Solubility (20° C.) of branched chain-containing and straight chain-containing aromatic compounds in various solvents
Conditions: for solubility in CPME: saturated in CPME (cyclopentylmethylether) at 20° C.; for solubility in chloroform: saturated in chloroform at 20° C.; for solubility in ethyl acetate: saturated in ethyl acetate at 20° C.; for solubility in isopropyl acetate: saturated in isopropyl acetate at 20° C.; for solubility in toluene: saturated in toluene at 20° C.

Molecule	solubility in CPME	solubility in chloroform	solubility in ethyl acetate	solubility in isopropyl acetate	solubility in toluene
3,4,5-tri(2′,3′-dihydrophytyloxy)benzyl alcohol [Example 5]	>50 wt %	>50 wt %	>50 wt %	>50 wt %	>50 wt %
CCCCCCCCCCCCCCCCCCOc1cc(CO)cc(OCCCCCCCCCCCCCCCCCC)c1OCCCCCCCCCCCCCCCCCC [Comparative Example 1]	4.5 wt %	9.9 wt %	0.2 wt %	0.02 wt %	2.6 wt %
TERGITOL-Adduct of 3-hydroxymethylphenol [Example 21]	>50 wt %	>50 wt %	>50 wt %		

The next lines start with the values.

solubility in CPME	solubility in chloroform	solubility in ethyl acetate	solubility in isopropyl acetate	solubility in toluene	Molecule
		0.3 wt %	0.06 wt %		CCCCCCCCCCCCCCCCCCCCCCOc1ccc(CO)c(OCCCCCCCCCCCCCCCCCCCCCC)c1 [compound 2]
0.01 wt %	0.8 wt %	0.2 wt %	0.1 wt %	0.01 wt %	CCCCCCCCCCCCCCCCCCCCCCOc1ccc(C(N)c2ccc(C)cc2)cc1 (centres unmarked) [compound 3]
